Data reported in US8440648B2, “Methods and compositions for treatment of intraepithelial neoplasia” (Erimos Pharmaceuticals LLC, priority 2004, dated 2013).

Columns and labels:
[1] = system: women with Cervical Intraepithelial Neoplasia; assay: Pilot clinical trial of intravaginal M4N: systemic and local toxicity; format: in vivo
From the text: (§1) This study was designed to look at the systemic and local toxicity of tetra-O-methyl NDGA (M4N) administered intravaginally to women once a week for three weeks. Patients, at the time of screening, had visible cervical lesions, were HPV positive, and had previous biopsy confirmed Cervical Intraepithelial Neoplasia (CIN). Cervical biopsies were taken at Day 1 and follow up biopsies were taken at Day 71. Five patients have been enrolled in the study, and three patients have completed the study through Day 71.
(§2) The first four patients received 5 mL of a 1% formulation of M4N in white petrolatum once weekly for each of three weekly doses. […] One patient received 5 mL of a 2% M4N formulation in white petrolatum at each of two weekly doses to date. […] The relationship to the study drug administration is unknown.

[2] = system: New Zealand White rabbits; assay: Fourteen day rabbit intravaginal topical toxicology study (local and systemic toxicity); details: M4N 20 mg/g in white petrolatum
Method: This study was designed to look at the local and systemic toxicity of tetra-O-methyl NDGA (M4N) administered intravaginally in New Zealand White rabbits for 14 days. Rabbits were dosed daily with 1 mL of a white petrolatum formulation of M4N (20 mg/g) or placebo. Ten female rabbits (5 per group) were dosed. Local effects of drug were scored using the Draize scoring system daily, and gross pathology and histopathology was obtained at necropsy on termination of the dosing period.

[3] = Serum levels of M4N in the fourteen day rabbit intravaginal study; format: in vivo, New Zealand White rabbits; details: M4N 20 mg/g in white petrolatum, 1 mL intravaginally daily, rabbits; levels inconsistent, minimal absorption
Method: Fourteen Day Rabbit Intravaginal Topical Toxicology Study. […] Ten female rabbits (5 per group) were dosed.

[4] = system: Cervical Intraepithelial Neoplasia (CIN); assay: Pilot clinical trial of intravaginal M4N: preliminary efficacy from cervical biopsies; format: in vivo, women; details: three patients, 3 weekly doses of 1% M4N in white petrolatum
From the text: as §1
Preliminary efficacy data was collected from cervical biopsies at Day 1 and Day 71 from the three patients that completed the Day 71 visit after receiving 3 doses of the 1% formulation of M4N.

[5] = Pilot clinical trial of intravaginal M4N: serum levels; format: in vivo; details: after intravaginal administration of the 1% formulation in white petrolatum, women
From the text: as §1, §2

[6] = 1 mL intravaginally daily for 14 days

COc1ccc(C[C@@H](C)[C@@H](C)Cc2ccc(OC)c(OC)c2)cc1OC [M4N, meso-1,4-bis(3,4-dimethoxyphenyl)-2,3-dimethylbutane]
Irritation or toxicity ([1]; 5 mL of 1% M4N in white petrolatum intravaginally once weekly, three doses, four patients): No irritation or toxicity was reported | Vaginal irritation or toxicity ([1]; 5 mL of 2% M4N in white petrolatum intravaginally, two weekly doses, one patient): No vaginal irritation or toxicity was reported | Vulvar irritation ([1]; 5 mL of 2% M4N in white petrolatum intravaginally, two weekly doses, one patient, relationship to drug unknown): minor vulvar irritation was reported | Vaginal observations: mild edema, animals affected [2, 6]: 2/5 | Vaginal observations: mild erythema, animals affected [2, 6]: 3/5 | Survival until scheduled termination ([2]; 1 mL intravaginally daily for 14 days, rabbits): All animals survived until scheduled termination | Vaginal observations: minimal edema, animals affected ([2]; 1 mL intravaginally daily for 14 days, control 2/5): 1/5 | Weekly clinical and twice daily cage-side observations ([2]; intravaginally daily for 14 days): No findings were noted | Clinical pathology findings ([2]; intravaginally daily for 14 days, considered incidental): lower absolute basophil counts, and ALT values | Histopathology findings ([2]; intravaginally daily for 14 days, relation to drug unknown): in one M4N-treated rabbit, heterophil infiltrates were seen in the vaginal mucosa | Serum level at peak concentration [3]: less than 10 ng/mL | Response in cervical biopsies, Day 71 versus Day 1 [4]: one patient had a complete response, one patient had a partial response, and one patient showed disease progression | Serum levels [5]: below limit of quantification
